Test results: PMC9109057, “Designing Self‐Assembling Chimeric Peptide Nanoparticles with High Stability for Combating Piglet Bacterial Infections” (Advanced Science, 2022)
Converted amounts (≈) assume the structure as drawn. Where a SMILES comes first, the peptide text is derived from it. [ ]: non-standard residue; d: D form. The star is where a group is joined. PEG8 = NCCOCCOCCOCCOCCOCCOCCOCCOCCC(=O)O; Myristoyl = CCCCCCCCCCCCCC(=O)*

Experiments:
[1] = tested on: E. coli ATCC25922; type: cell-based
Protocol: (§1) The MICs of the self‐assembling peptide nanoparticles were determined using the modified broth microdilution method.^[ [46] ^] The bacteria were resuspended in a logarithmic growth phase in a Mueller–Hinton broth (MHB) medium, the optical density (OD) at a wavelength of 600 nm was adjusted to ≈ 0.4, and the suspension was diluted 1000 times with MHB. In a 96‐well plate, the peptides were diluted via multiple dilutions using a 0.2% bovine serum albumin solution to a concentration range of 0.25 × 10^−6–128 × 10^−6 M. Subsequently, the diluted bacterial solution and peptide solution were mixed in a 1:1 ratio in a 96‐well plate and incubated at 37 °C. After 18–24 h, the absorbance at 492 nm was measured using a microplate reader. The MIC value was defined as the lowest peptide nanoparticle concentration without bacterial growth. Each test was performed in duplicate and repeated three times.

[2] = tested on: P. aeruginosa 27853; type: cell-based
Protocol: as §1

[3] = tested on: S. aureus ATCC6538; type: cell-based
Protocol: as §1

[4] = tested on: porcine red blood cells; type: cell-based; conditions: pH 7.4
Protocol: Fresh porcine red blood cells were used to study the hemolysis of self‐assembled peptide nanoparticles.^[ [48] ^] The red blood cells were collected by washing with PBS (10 × 10^−3 M, pH 7.4) until the supernatant became clear. A 10% v/v red blood cell suspension was prepared with PBS, and peptide nanoparticles with a final concentration of 128 × 10^−6 M were added to the suspension (1 mL). After gentle incubation at 37 °C for 2 h, the cells were centrifuged at 6000 rpm for 5 min, and the absorbance of the supernatant was measured at 570 nm. Two red blood cell suspensions (one containing 0.2% Triton X‐100, the other without peptide nanoparticles) were used as positive and negative controls, respectively. The hemolysis of each sample was calculated, and images were collected.

[5] = biological target: T1, pepsin (Sus scrofa, UniProt P00791); experiment: Protease stability assay (MIC and RP-HPLC read-out); type: in vitro ADME; conditions: for Antibacterial activity (MIC) after treatment with pepsin: equal volumes of peptide 2560 × 10^−6 M and pepsin 8 mg mL^−1, 37 °C, 1 h, MIC vs E. coli ATCC25922 and S. aureus ATCC6538, n = 6; for RP-HPLC peak shape and area after treatment with pepsin: pepsin 4 or 8 mg mL^−1, 37 °C, 8 h vs 0 h control, C18 RP-HPLC, UV 214 nm
T1 construct: purchased Sigma-Aldrich (China)
T1 sequence (P00791 60-385): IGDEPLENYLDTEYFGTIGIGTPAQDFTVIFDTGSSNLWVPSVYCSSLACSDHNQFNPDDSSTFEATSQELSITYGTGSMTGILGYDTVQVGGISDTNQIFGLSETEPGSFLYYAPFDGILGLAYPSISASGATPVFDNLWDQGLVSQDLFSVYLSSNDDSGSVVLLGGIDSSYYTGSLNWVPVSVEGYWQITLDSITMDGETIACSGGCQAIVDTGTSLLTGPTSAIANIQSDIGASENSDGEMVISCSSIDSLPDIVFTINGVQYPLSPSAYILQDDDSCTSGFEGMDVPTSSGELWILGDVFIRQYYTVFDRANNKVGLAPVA
Protocol: (§2) An equal volume of peptide nanoparticles (2560 × 10^−6 M) and pepsin, trypsin, or chymotrypsin (8 mg mL^−1) was mixed and incubated at 37 °C for 1 h. Then, the MICs of peptide nanoparticles against E. coli ATCC25922 and S. aureus ATCC6538 were measured using the above‐mentioned method. Each test was performed in duplicate and repeated three times.
(§3) For RP‐HPLC, an equal volume of peptide nanoparticles (2560 × 10^−6 M) and pepsin, trypsin, or chymotrypsin (4 or 8 mg mL^−1) was mixed. The mixed solution was incubated at 37 °C for a predetermined time (0, 2, 4, or 8 h), and the protease was completely inactivated by heating in boiling water at 100 °C for 5 min. The concentration of peptide nanoparticles in the samples was then diluted to 256 × 10^−6 M, and the samples were analyzed using an RP‐HPLC system equipped with an Acchorm Unitary C18 column (5 µm, 100 Å, 4.6 mm × 250 mm). A gradient of 42% to 96% acetonitrile in water with 0.1% trifluoroacetic acid was used as the mobile phase at a flow rate of 0.8 mL min^−1. UV detection was performed at a wavelength of 214 nm.

[6] = tested on: trypsin; experiment: as above; type: in vitro ADME; conditions: equal volumes of peptide 2560 × 10^−6 M and trypsin 8 mg mL^−1, 37 °C, 1 h; MIC vs E. coli ATCC25922 and S. aureus ATCC6538; n = 6
Protocol: as §2, §3

[7] = biological target: T2, chymotrypsin (Bos taurus, UniProt P00766); experiment: as above; type: in vitro ADME; conditions: equal volumes of peptide 2560 × 10^−6 M and chymotrypsin 8 mg mL^−1, 37 °C, 1 h; MIC vs E. coli ATCC25922 and S. aureus ATCC6538; n = 6
T2 construct: purchased Sigma-Aldrich (China)
Protocol: as §2, §3

[8] = tested on: C57BL/6 mice; conditions: mouse, in vivo, ip
Protocol: Healthy female C57BL/6 mice (weight is about 20 g) were randomly divided into five groups with six replicates per group. Mice were acclimated for 3 d in an environment of suitable temperature (20–24 °C), humidity (50–60%), and alternating light and dark. During the assay, the first group of mice was intraperitoneally injected with 150 µL of saline (once daily), and the second to fifth groups of mice were intraperitoneally injected with 150 µL nanoparticles NPs1 or NPs2 at doses of 15 and 30 mg kg^−1 (once daily). Continuous injection was given for 7 days. At 12 h after the last administration, the mice were euthanized using mild ether anesthesia. Blood samples were taken from the mice's orbital vein, and serum was analyzed using an automatic biochemical analyzer. The kidneys and livers of the mice were taken, weighed, and fixed with 4% paraformaldehyde; then, histological analysis was performed via H&E staining.

[9] = tested on: HEK293T cells; experiment: Cytotoxicity assay (MTT; SYTO9/PI live/dead imaging); type: cell-based, Human; conditions: 64 × 10^−6 M, 2 h, 37 °C, laser confocal microscope
Protocol: 3‐(4,5‐dimethylthiazol‐2‐yl)‐2,5‐diphenyltetrazolium bromide (MTT) dye was used to determine the cytotoxicity of the peptide nanoparticles.^[ [47] ^] Human embryonic kidney (HEK) 293T cells were seeded into 96‐well plates at a concentration of (1–2) × 10^5 cells per well in high glucose DMEM and placed in a cell incubator (5% CO2, 37 °C) for 24 h. After discarding the medium, peptides (100 µL) were added with a concentration range of 0.125 × 10^−6–64 × 10^−6 M to wells 1–10 of a 96‐well plate and incubated at 37 ℃ for 2 h. Samples without peptides were used as positive controls and samples without cells were used as negative controls. Subsequently, 20 µL of MTT (5 mg mL^−1) was added to each well before another 4 h of incubation. After discarding the supernatant, 150 µL of dimethyl sulfoxide was added to each well of the 96‐well plate, to fully dissolve the crystals; then, the absorbance at a wavelength of 570 nm was measured using a microplate reader. Each test was performed in duplicate and repeated three times. Cell viability was expressed as a percentage. For laser confocal microscope samples, after the peptides (the final concentration is 64 × 10^−6 M) were added to a 96‐well plate, the final concentration of 5 × 10^−6 M SYTO9 and 20 µg mL^−1 PI dye was added to a 96‐well plate, and incubated at 37 ℃ for 2 h. Cells were imaged using a laser scanning confocal microscope. A sample without peptide nanoparticles was used as a control.

[10] = tested on: S.epidermidis 49134; type: cell-based
Protocol: as §1

[11] = tested on: C. rodentium DBS100; type: cell-based
Protocol: as §1

[12] = tested on: S. aureus CVCC1882; type: cell-based
Protocol: as §1

Row | Structure (SMILES) | MIC E. coli 25922 [1] [µM] | MIC P. aeruginosa 27853 [2] [µM] | MIC S. aureus 6538 [3] [µM] | MHC [4] | Antibacterial activity (MIC) after treatment with pepsin [5] | RP-HPLC peak shape and area after treatment with pepsin [5] | Antibacterial activity (MIC) after treatment with trypsin [6] | Antibacterial activity (MIC) after treatment with chymotrypsin [7] | Side effects on mice [8] | Live/dead (SYTO9/PI) imaging of HEK293T cells [9] | MIC S.epidermidis 49134 [10] [µM] | MIC C. rodentium DBS100 [11] [µM] | MIC S. aureus 1882 [12] [µM]
1 | CCCCCCCCCCCCCC(=O)N1CCC[C@H]1C(=O)N[C@@H](Cc1ccccc1)C(=O)N1CCC[C@H]1C(=O)N[C@@H](Cc1ccccc1)C(=O)N1CCC[C@H]1C(=O)N[C@@H](Cc1ccccc1)C(=O)N1CCC[C@H]1C(=O)N[C@@H](CCCCNC(=O)CCOCCOCCOCCOCCOCCOCCOCCOCCN)C(=O)N1CCC[C@H]1C(=O)N[C@@H](CCCCN)C(=O)N1CCC[C@H]1C(=O)N[C@@H](CCCCN)C(=O)N1CCC[C@H]1C(=O)N[C@@H](CCCCN)C(=O)N1CCC[C@H]1C(=O)N[C@@H](CCCCN)C(=O)N1CCC[C@H]1C(=O)N[C@@H](CCCCN)C(=O)N1CCC[C@H]1C(N)=O [NPs1] (Myristoyl-PFPFPFPK(PEG8)PKPKPKPKPKP-NH2) | 9.3 ± 3.0 (≈ 26.3 µg/mL) | 12.0 ± 4.0 (≈ 34 µg/mL) | 5.3 ± 1.9 (≈ 15 µg/mL) | > 128 | remained essentially unchanged | remained intact | remained essentially unchanged | remained essentially unchanged | negligible | only led to a few cell deaths | – | – | –
2 | CCCCCCCCCCCCCC(=O)N1CCC[C@H]1C(=O)N[C@@H](Cc1ccccc1)C(=O)N1CCC[C@H]1C(=O)N[C@@H](Cc1ccccc1)C(=O)N1CCC[C@H]1C(=O)N[C@@H](Cc1ccccc1)C(=O)N1CCC[C@H]1C(=O)N[C@@H](CCCCN)C(=O)N1CCC[C@H]1C(=O)N[C@@H](CCCCN)C(=O)N1CCC[C@H]1C(=O)N[C@@H](CCCCN)C(=O)N1CCC[C@H]1C(=O)N[C@@H](CCCCN)C(=O)N1CCC[C@H]1C(=O)N[C@@H](CCCCN)C(=O)N1CCC[C@H]1C(=O)N[C@@H](CCCCNC(=O)CCOCCOCCOCCOCCOCCOCCOCCOCCN)C(=O)N1CCC[C@H]1C(N)=O [NPs2] (Myristoyl-PFPFPFPKPKPKPKPKPK(PEG8)P-NH2) | 8 (≈ 22.7 µg/mL) | 13.3 ± 3.8 (≈ 37.7 µg/mL) | 6.7 ± 1.9 (≈ 19 µg/mL) | > 128 | remained essentially unchanged | remained intact | remained essentially unchanged | remained essentially unchanged | negligible | only led to a few cell deaths | 9.3 ± 3.0 (≈ 26.3 µg/mL) | 6.7 ± 1.9 (≈ 19 µg/mL) | 10.0 ± 4.5 (≈ 28.3 µg/mL)
3 | CCCCCCCCCCCCCC(=O)N1CCC[C@H]1C(=O)N[C@@H](Cc1ccccc1)C(=O)N1CCC[C@H]1C(=O)N[C@@H](Cc1ccccc1)C(=O)N1CCC[C@H]1C(=O)N[C@@H](Cc1ccccc1)C(=O)N1CCC[C@H]1C(=O)N[C@@H](CCCCN)C(=O)N1CCC[C@H]1C(=O)N[C@@H](CCCCN)C(=O)N1CCC[C@H]1C(=O)N[C@@H](CCCCN)C(=O)N1CCC[C@H]1C(=O)N[C@@H](CCCCN)C(=O)N1CCC[C@H]1C(=O)N[C@@H](CCCCN)C(=O)N1CCC[C@H]1C(=O)N[C@@H](CCCCN)C(=O)N1CCC[C@H]1C(=O)NCCOCCOCCOCCOCCOCCOCCOCCOCCC(N)=O [NPs3] (Myristoyl-PFPFPFPKPKPKPKPKPKP[PEG8]-NH2) | 9.3 ± 3.0 (≈ 26.3 µg/mL) | 21.3 ± 7.5 (≈ 60.3 µg/mL) | 7.3 ± 1.5 (≈ 20.7 µg/mL) | > 128 | – | – | – | – | – | only led to a few cell deaths | 9.3 ± 3.0 (≈ 26.3 µg/mL) | – | 14.7 ± 3.0 (≈ 41.6 µg/mL)
